According to patent US20260166021A1, “POLYMORPHIC FORMS OF A SOLUBLE EPOXIDE HYDROLASE INHIBITOR AND FORMULATIONS THEREOF” (EicOsis, LLC, priority 2022, published 2026):
Where two headings read alike, the source gives them in different places.

Key:
Format in all cases: physicochemical
[1] = Solubility screening of Formula (I) in crystallization solvents at RT and 50° C. (TABLE 3); conditions: for solubility: thermodynamic from solid
Experimental: This example covers crystallization of Formula (I) in multiple solvent systems. Solvents were selected to span a range of polarities, functionalities, and classifications according to the International Conference on Harmonization (ICH) with preferences given to class II and class III solvents. […] After each addition of solvent, the vials were shaken and visually inspected for residual solids. If required, heating to 50° C. or heated to reflux (for low boiling point solvents) for approximately two minutes was performed to ensure complete dissolution. If residual solids remained, additional solvent aliquots were added. The solvent addition was discontinued when complete dissolution was achieved. […]

[2] = Equilibrium-solubility screening in solvents and excipients; conditions: organic solvent or mixture, thermodynamic from solid; PEG300, PEG400, propylene glycol, vitamin E TPGS, Gelucire 44/14, castor oil hydrogenated, Capmul MCM NF, Capmul MCM EP, Kolliphor HS-15, Kolliphor EL, Labrasol, Transcutol HP; approx. 24 hours
Experimental: For these analyses, Form D or Form C was mixed with 0.5 or 1.0 mL of solvents and equilibrated for approximately 24 hours. The mixture was filtered through 0.45 μm centrifuge filters.
As expected, the compound was not easily ionized at physiologically relevant pH. […] In addition, these excipients included surfactants, co-solvents, and lipids which are amenable for use in self-emulsifying drug delivery systems (SEDDS). The XRD pattern of the starting material was maintained for each sample after equilibrium.

[3] = Supersaturation monitoring in PEG 300

CC[C@H](C)C(=O)N1CCC(NC(=O)Nc2ccc(OC(F)(F)F)c(F)c2)CC1 [Formula (I), (S)-1-(3-fluoro-4-(trifluoromethoxy)phenyl)-3-(1-(2-methylbutanoyl)piperidin-4-yl)urea]
Soluble? ([1]; 2-MeTHF, RT, Vol 0.2 mL): Yes | solubility ([1]; 2-butanone (MEK), organic solvent or mixture, MEK, RT, read-out: Nominal Solubility): 50.4 mg/mL | solubility ([1]; 2-butanone (MEK), organic solvent or mixture, MEK, RT, read-out: Solubility Range): ≥ 50.4 mg/mL | solubility ([1]; 2-methyltetrahydrofuran (2-MeTHF), organic solvent or mixture, 2-MeTHF, RT, read-out: Nominal Solubility): 25.2 mg/mL | solubility ([1]; 2-methyltetrahydrofuran (2-MeTHF), organic solvent or mixture, 2-MeTHF, RT, read-out: Solubility Range): 25.2 to 50.4 mg/mL | Soluble? ([1]; ACN, RT, Vol 0.1 mL): Yes | Soluble? ([1]; Acetone, RT, Vol 0.1 mL): Yes | Soluble? ([1]; DCM, RT, Vol 0.1 mL): Yes | solubility ([1]; DMF, organic solvent or mixture, DMF, RT, read-out: Nominal Solubility): 46.1 mg/mL | solubility ([1]; DMF, organic solvent or mixture, DMF, RT, read-out: Solubility Range): ≥ 46.1 mg/mL | Soluble? ([1]; DMF, RT, Vol 0.1 mL): Yes | solubility ([1]; DMSO, organic solvent or mixture, DMSO, RT, read-out: Nominal Solubility): 47.8 mg/mL | solubility ([1]; DMSO, organic solvent or mixture, DMSO, RT, read-out: Solubility Range): ≥ 47.8 mg/mL | Soluble? ([1]; DMSO, RT, Vol 0.1 mL): Yes | Soluble? ([1]; Dioxane, RT, Vol 0.5 mL): Yes | Soluble? ([1]; EtOAc, RT, Vol 0.1 mL): Yes | Soluble? ([1]; EtOH, RT, Vol 0.1 mL): Yes | Soluble? ([1]; IPA, RT, Vol 0.1 mL): Yes | Soluble? ([1]; IPAC, RT, Vol 0.2 mL): Yes | Soluble? ([1]; MEK, RT, Vol 0.1 mL): Yes | Soluble? ([1]; MIBK, RT, Vol 0.1 mL): Yes | Soluble? ([1]; MTBE, 50° C., Vol 1.0 mL): Yes | Soluble? ([1]; MeOH, RT, Vol 0.1 mL): Yes | solubility ([1]; NMP, organic solvent or mixture, NMP, RT, read-out: Nominal Solubility): 55.2 mg/mL | solubility ([1]; NMP, organic solvent or mixture, NMP, RT, read-out: Solubility Range): ≥ 55.2 mg/mL | Soluble? ([1]; NMP, RT, Vol 0.1 mL): Yes | Soluble? ([1]; THF, RT, Vol 0.1 mL): Yes | Soluble? ([1]; Toluene, 50° C., Vol 0.5 mL): Yes | Soluble? ([1]; Water, 50° C., Vol 4.0 mL): No | solubility ([1]; acetone, organic solvent or mixture, Acetone, RT, read-out: Nominal Solubility): 43.7 mg/mL | solubility ([1]; acetone, organic solvent or mixture, Acetone, RT, read-out: Solubility Range): ≥ 43.7 mg/mL | solubility ([1]; acetonitrile (ACN), organic solvent or mixture, ACN, RT, read-out: Nominal Solubility): 48.3 mg/mL | solubility ([1]; acetonitrile (ACN), organic solvent or mixture, ACN, RT, read-out: Solubility Range): ≥ 48.3 mg/mL | Soluble? ([1]; c-Hexane, 50° C., Vol 4.0 mL): No | solubility ([1]; c-hexane, 50 °C, organic solvent or mixture, c-Hexane, 50° C., read-out: Solubility Range): < 1.17 mg/mL | solubility ([1]; cyclohexane (c-hexane), 50 °C, organic solvent or mixture, c-Hexane, 50° C., read-out: Nominal Solubility): < 1.17 mg/mL | solubility ([1]; dichloromethane (DCM), organic solvent or mixture, DCM, RT, read-out: Nominal Solubility): 46.6 mg/mL | solubility ([1]; dichloromethane (DCM), organic solvent or mixture, DCM, RT, read-out: Solubility Range): ≥ 46.6 mg/mL | solubility ([1]; dioxane, organic solvent or mixture, Dioxane, RT, read-out: Nominal Solubility): 9.36 mg/mL | solubility ([1]; dioxane, organic solvent or mixture, Dioxane, RT, read-out: Solubility Range): 9.36 to 23.4 mg/mL | solubility ([1]; ethanol, organic solvent or mixture, EtOH, RT, read-out: Nominal Solubility): 41.2 mg/mL | solubility ([1]; ethanol, organic solvent or mixture, EtOH, RT, read-out: Solubility Range): ≥ 41.2 mg/mL | solubility ([1]; ethyl acetate (EtOAc), organic solvent or mixture, EtOAc, RT, read-out: Nominal Solubility): 54.3 mg/mL | solubility ([1]; ethyl acetate (EtOAc), organic solvent or mixture, EtOAc, RT, read-out: Solubility Range): ≥ 54.3 mg/mL | solubility ([1]; isopropanol (IPA), organic solvent or mixture, IPA, RT, read-out: Nominal Solubility): 56 mg/mL | solubility ([1]; isopropanol (IPA), organic solvent or mixture, IPA, RT, read-out: Solubility Range): ≥ 56 mg/mL | solubility ([1]; isopropyl acetate (IPAc), organic solvent or mixture, IPAC, RT, read-out: Nominal Solubility): 23.4 mg/mL | solubility ([1]; isopropyl acetate (IPAc), organic solvent or mixture, IPAC, RT, read-out: Solubility Range): 23.4 to 46.7 mg/mL | solubility ([1]; methanol, organic solvent or mixture, MeOH, RT, read-out: Nominal Solubility): 43.2 mg/mL | solubility ([1]; methanol, organic solvent or mixture, MeOH, RT, read-out: Solubility Range): ≥ 43.2 mg/mL | solubility ([1]; methyl isobutyl ketone (MIBK), organic solvent or mixture, MIBK, RT, read-out: Nominal Solubility): 48 mg/mL | solubility ([1]; methyl isobutyl ketone (MIBK), organic solvent or mixture, MIBK, RT, read-out: Solubility Range): ≥ 48 mg/mL | solubility ([1]; methyl tert-butyl ether (MTBE), 50 °C, organic solvent or mixture, MTBE, 50° C., read-out: Nominal Solubility): 5.68 mg/mL | solubility ([1]; methyl tert-butyl ether (MTBE), 50 °C, organic solvent or mixture, MTBE, 50° C., read-out: Solubility Range): 5.68 to 11.4 mg/mL | Soluble? ([1]; n-BuOH, RT, Vol 0.1 mL): Yes | Soluble? ([1]; n-Heptane, 50° C., Vol 4.0 mL): No | Soluble? ([1]; n-Propanol, RT, Vol 0.1 mL): Yes | solubility ([1]; n-butanol (n-BuOH), organic solvent or mixture, n-BuOH, RT, read-out: Nominal Solubility): 42.6 mg/mL | solubility ([1]; n-butanol (n-BuOH), organic solvent or mixture, n-BuOH, RT, read-out: Solubility Range): ≥ 42.6 mg/mL | solubility ([1]; n-heptane, 50 °C, organic solvent or mixture, n-Heptane, 50° C., read-out: Nominal Solubility): < 1.32 mg/mL | solubility ([1]; n-heptane, 50 °C, organic solvent or mixture, n-Heptane, 50° C., read-out: Solubility Range): < 1.32 mg/mL | solubility ([1]; n-propanol, organic solvent or mixture, n-Propanol, RT, read-out: Nominal Solubility): 52.2 mg/mL | solubility ([1]; n-propanol, organic solvent or mixture, n-Propanol, RT, read-out: Solubility Range): ≥ 52.2 mg/mL | solubility ([1]; tetrahydrofuran (THF), organic solvent or mixture, THF, RT, read-out: Nominal Solubility): 48 mg/mL | solubility ([1]; tetrahydrofuran (THF), organic solvent or mixture, THF, RT, read-out: Solubility Range): ≥ 48 mg/mL | solubility ([1]; toluene, 50 °C, organic solvent or mixture, Toluene, 50° C., read-out: Nominal Solubility): 10 mg/mL | solubility ([1]; toluene, 50 °C, organic solvent or mixture, Toluene, 50° C., read-out: Solubility Range): 10 to 25 mg/mL | solubility ([1]; water, 50 °C, water, Water, 50° C., read-out: Nominal Solubility): < 1.36 mg/mL | solubility ([1]; water, 50 °C, water, Water, 50° C., read-out: Solubility Range): < 1.36 mg/mL | solubility thermodynamic [2]: > 20 mg/mL | time without visual precipitation in PEG300 ([3]; 100 mg/mL in PEG300, room temperature): 9 days | precipitation from PEG300 ([3]; 200 mg/mL in PEG300): readily precipitated overnight
